Source: US3941842A, “P,P'-Disubstituted α-trichloromethylbenzylanilines” (priority 1972, dated 1976)

How the values were obtained:
Musca domestica Rsp = experiment: Topical LD50 to adult female RSP houseflies; conditions: for LD50: Musca domestica, read-out: Topical LD50, Musca domestica Rsp, Alone; for LD50 / Topical LD50, Musca domestica Rsp, with pb: topical; for Topical LD50, Musca domestica Rsp, with pb: RSP strain, synergized with piperonyl butoxide; for SR, Musca domestica Rsp: synergistic ratio: LD50 alone/LD50 synergized with piperonyl butoxide
Method: (§1) The compounds of the present invention were tested for insecticidal activity by standard methods, and compared with the insecticidal activities of DDT and symmetrical analogs of DDT, such methoxychlor. Toxicological methods for the determination of the topical LD50 values to adult female SNAIDM and RSP houseflies, Musca domestica L. and to Phormia regina, and LC50 values to Culex pipiens quinquefasciatus Say, and Anopheles albimanus Weid mosquitoes were described by Metcalf el al., 44 Bull. World Health Org. 363 (1971). The methods for evaluation of metabolism by mouse liver homogenate and by female RSP housefly and salt-marsh caterpillar larvae Estigmene acrea Drury, were described by Kapoor et al., 18 J. Agr. Food Chem. 1145 (1970). The techniques for model eocsystem evluation were described by Metcalf et al., 5 J. Environ. Sci. Tech. 709 (1971).
(§2) Since piperonyl butoxide serves to block the action of MFO, the synergized LD50 values express the intrinsic toxicity of the compounds. With the detoxifying action of MFO enzymes blocked, the intrinsic toxicity of the compounds can thus be measured.

Musca domestica Snaidm = experiment: Topical LD50 to adult female SNAIDM houseflies; conditions: for LD50: Musca domestica, read-out: Topical LD50, Musca domestica Snaidm, Alone; for LD50 / Topical LD50, Musca domestica Snaidm, with pb: topical; for Topical LD50, Musca domestica Snaidm, with pb: SNAIDM strain, synergized with piperonyl butoxide; for SR, Musca domestica Snaidm: synergistic ratio: LD50 alone/LD50 synergized with piperonyl butoxide
Method: as §1, §2

Phormia regina = experiment: whole plant or invertebrate; conditions: for LD50: Phormia regina, read-out: Topical LD50, Phormia regina, Alone; for LD50 / Topical LD50, Phormia regina, with pb: topical; for SR, Phormia regina: synergistic ratio: LD50 alone/LD50 synergized with piperonyl butoxide; for Topical LD50, Phormia regina, with pb: synergized with piperonyl butoxide
Method: as §1, with “363 (1971).” left out, “Food Chem. 1145 (1970).” left out, “Tech.” for “Tech. 709 (1971).”
as §2

[1] = tested on: Anopheles albimanus larvae; experiment: LC50 to Anopheles albimanus larvae; assay type: in vivo, Anopheles albimanus Weid
Excerpt: (§3) World Health Org. 363 (1971). […] Food Chem. 1145 (1970). […] Sci. Tech. 709 (1971). The results are detailed in Table II. ##SPC1##

Culex fatigans larvae = experiment: LC50 to Culex fatigans larvae; assay type: in vivo, Culex pipiens quinquefasciatus Say
Excerpt: as §3

[2] = tested on: Musca domestica (SNAIDM and RSP strains), Phormia regina, Culex fatigans and Anopheles albimanus; experiment: Insecticidal activity over the test insects (Table II, summarised in words); assay type: in vivo; conditions: overall, test insects of Table II
Method: as §1, §2

[3] = Model ecosystem: distribution, ecological magnification and Biodegradability Index; conditions: 33 days, 5.0 mg 3H-ethoxyaniline to Sorghum
Excerpt: After the amounts of the various metabolites have been calculated and a determination is made as to which of the metabolites are to be designated as "polar" and which are to be designated as "non-polar", a Biodegradability Index (amount of polar metabolites/amount of nonpolar metabolites) may be calculated. Remembering that nonpolar compounds, such as DDT are readily soluble in the fatty tissues, but are not readily soluble in water based solutions, and that the cell fluid is essentially a water based solution, the lower the Biodegradability Index, the lower the amount of biodegradability of the compound. The higher the amount of polarity, the greater the likelihood that the polar compound will dissolve in water, a very polar compound, and be eliminated from the cell.
The environmental fate of any new pesticide is a factor of paramount importance in determining how and where it might be used. The behavior of ^3 H-α-trichloromethyl-p-ethoxybenzyl-p-ethoxyaniline has been studied by the model ecosystem technique following application of 5.0 mg. of labeled compound to Sorghum plants. A summary of
metabolites from the organisms in the model ecosystem after 33 days were
identified by cochromatography with standards of known constitution, by
appropriate chromogenic reagents, and by high-resolution mass
spectrometry. The data of Table IV indicate the O-dealkylation of
Food Chem. 1 (1972). Ethoxychlor was found in the snail to 58.6 ppm and in the fish to 0.92 ppm, along with its ethylene and the mono- and bis-phenols formed by O-dealkylation. The ecological magnification (E.M.) of ethoxychlor, defined as the ratio of the parent material in the fish to the concentration in the water, was 1500-fold as compared with an E.M. of only 0.7-fold for the ethoxyaniline.
Comparing the Biodegradability Indices (B.I.=total recovered polar metabolites/total recovered nonpolar metabolites) the values are 0.44 for ethoxychlor and 2.0 for ethoxyaniline.

Row | SMILES | LD50 (Musca domestica Rsp) | Topical LD50, Musca domestica Rsp, with pb (Musca domestica Rsp) | SR, Musca domestica Rsp (Musca domestica Rsp) | LD50 (Musca domestica Snaidm) | Topical LD50, Musca domestica Snaidm, with pb (Musca domestica Snaidm) | SR, Musca domestica Snaidm (Musca domestica Snaidm) | LD50 (Phormia regina) | SR, Phormia regina (Phormia regina) | Topical LD50, Phormia regina, with pb (Phormia regina) | LC50 Anopheles albimanus larvae [1] | LC50 Culex fatigans larvae (Culex fatigans larvae) | insecticidal effectiveness / toxicity (in words) [2] | Concentration of ethoxyaniline equivalents in Culex (mosquito) [3] | Concentration of ethoxyaniline equivalents in Gambusia (fish) [3] | Concentration of ethoxyaniline equivalents in H2O [3] | Concentration of ethoxyaniline equivalents in Oedogonium (algae) [3] | Concentration of ethoxyaniline equivalents in Physa (snail) [3]
1 | CCOc1ccc(NC(c2ccc(C)cc2)C(Cl)(Cl)Cl)cc1 (stereo not drawn) [XII] | 70 mg/kg | 19.5 μg per g | 3.6 | 35 mg/kg | 14.5 μg per g | 2.4 | 95 mg/kg | 2.2 | 42.5 μg per g | 0.30 ppm | 0.33 ppm |  |  |  |  |  | 
2 | Cc1ccc(NC(c2ccc(C)cc2)C(Cl)(Cl)Cl)cc1 (stereo not drawn) [IV] | 43 mg/kg | 6.5 μg per g | 6.6 | 43 mg/kg | 5.0 μg per g | 8.6 | 33.7 mg/kg |  | 21.0 μg per g | 0.21 ppm | 0.18 ppm | one of the more insecticidal compounds |  |  |  |  | 
3 | CCOc1ccc(C(Nc2ccc(C)cc2)C(Cl)(Cl)Cl)cc1 (stereo not drawn) [XI, α-trichloromethyl-p-ethoxybenzyl-p-methylaniline] | 14 mg/kg | 4.4 μg per g | 3.2 | 12.5 mg/kg | 2.5 μg per g | 5.0 | 7.7 mg/kg |  | 4.2 μg per g | 0.085 ppm | 0.073 ppm |  |  |  |  |  | 
4 | CCOc1ccc(NC(c2ccc(O)cc2)C(Cl)(Cl)Cl)cc1 (stereo not drawn) [C2 H5 OC6 H4 NHCH(CCl3)C6 H4 OH, α-trichloromethyl-p-hydroxybenzyl-p-ethoxyaniline] |  |  |  |  |  |  |  |  |  |  |  |  | 0.13 ppm | 0.08 ppm | 0.031 ppm | 0.43 ppm | 2.02 ppm
5 | CCOc1ccc(C(Nc2ccc(Cl)cc2)C(Cl)(Cl)Cl)cc1 (stereo not drawn) [VII, α-trichloromethyl1p-ethoxybenzyl-p-chloroaniline] | 31 mg/kg | 13.5 μg per g | 2.3 | 19 mg/kg | 10.5 μg per g | 1.8 | 24.5 mg/kg |  | 20.0 μg per g | 0.060 ppm | 0.032 ppm | only slightly less active than compound XI |  |  |  |  | 
6 | Cc1ccc(C(Nc2ccc(Cl)cc2)C(Cl)(Cl)Cl)cc1 (stereo not drawn) [Compound XV] | ~500 mg/kg | 36.0 μg per g | 14 | 90 mg/kg | 21.0 μg per g | 4.3 | 72.5 mg/kg | 1.1 | 62.5 μg per g | 0.13 ppm | 0.066 ppm |  |  |  |  |  | 
7 | CCOc1ccc(C(=O)O)cc1 [C2 H5 OC6 H4 C(O)OH, p-ethoxybenzoic acid] |  |  |  |  |  |  |  |  |  |  |  |  | 0.06 ppm | 0.03 ppm | 0.123 ppm | 0.38 ppm | 1.800 ppm
8 | Cc1ccc(NC(c2ccc(Cl)cc2)C(Cl)(Cl)Cl)cc1 (stereo not drawn) [Compound XVI] | 125 mg/kg | 30 μg per g | 4.2 | 65 mg/kg | 16 μg per g | 4.1 | 36.2 mg/kg | 1.45 | 25 μg per g | 0.14 ppm | 0.18 ppm |  |  |  |  |  | 
9 | CCOc1ccc(NC(c2ccc(OC)cc2)C(Cl)(Cl)Cl)cc1 (stereo not drawn) [XIV] | 37 mg/kg | 12.0 μg per g | 3.1 | 30 mg/kg | 3.9 μg per g | 7.7 | 112 mg/kg | 5.6 | 20.0 μg per g | 1.0 ppm | 0.34 ppm |  |  |  |  |  | 
10 | CCOc1ccc(NC(c2ccc3c(c2)OCO3)C(Cl)(Cl)Cl)cc1 (stereo not drawn) [Compound XVII] | 35.5 mg/kg | 11.0 μg per g | 3.2 | 19.5 mg/kg | 3.8 μg per g | 5.1 | > 250 mg/kg | > 7.7 | 32.5 μg per g | 0.25 ppm | 0.23 ppm |  |  |  |  |  | 
11 | CCOc1ccc(C(Nc2ccc(OC)cc2)C(Cl)(Cl)Cl)cc1 (stereo not drawn) [XIII] | 41 mg/kg | 12.5 μg per g | 3.3 | 23.5 mg/kg | 5.5 μg per g | 4.2 | 22 mg/kg | 1.8 | 12.5 μg per g | 0.68 ppm | 0.42 ppm |  |  |  |  |  | 
12 | COc1ccc(C(Nc2ccc(Cl)cc2)C(Cl)(Cl)Cl)cc1 (stereo not drawn) [V] | 35.5 mg/kg | 12.0 μg per g | 3.0 | 23 mg/kg | 10.5 μg per g | 2.2 | 55 mg/kg | 3.6 | 15.2 μg per g | 0.12 ppm | 0.068 ppm |  |  |  |  |  | 
13 | COc1ccc(C(Nc2ccc(C)cc2)C(Cl)(Cl)Cl)cc1 (stereo not drawn) [IX] | 50 mg/kg | 12.0 μg per g | 4.5 | 35 mg/kg | 8.5 μg per g | 4.1 | 16.5 mg/kg | 1.4 | 11.50 μg per g | 0.28 ppm | 0.26 ppm |  |  |  |  |  | 
14 | CCOc1ccc(NC(c2ccc(Cl)cc2)C(Cl)(Cl)Cl)cc1 (stereo not drawn) [VIII] | 45 mg/kg | 13.0 μg per g | 3.5 | 19.5 mg/kg | 4.1 μg per g | 4.8 | 37.5 mg/kg | 2.8 | 13.2 μg per g | 0.26 ppm | 0.22 ppm |  |  |  |  |  | 
